# Assay results published in patent US20220204491A1, “FXR (NR1H4) MODULATING COMPOUNDS” (Gilead Sciences, Inc., priority 2019, published 2022).
# Target: T1, human FXR alpha ligand binding domain (LBD) (Homo sapiens, UniProt Q96RI1)
# T1 construct: made in house; host or cells: E. coli BL21(DE3), vector pDEST15
# T1 sequence (Q96RI1 187-472 isoform Q96RI1-2): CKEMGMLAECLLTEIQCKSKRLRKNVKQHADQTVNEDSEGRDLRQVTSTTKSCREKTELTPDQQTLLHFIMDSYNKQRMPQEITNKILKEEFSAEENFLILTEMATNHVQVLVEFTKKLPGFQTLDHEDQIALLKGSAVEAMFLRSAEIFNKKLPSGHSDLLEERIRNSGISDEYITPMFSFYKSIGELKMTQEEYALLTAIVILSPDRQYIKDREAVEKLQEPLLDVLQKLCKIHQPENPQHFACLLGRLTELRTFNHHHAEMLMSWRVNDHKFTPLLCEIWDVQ
# Assay: FRET activity assay (FXR-LBD / SRC-1 cofactor peptide interaction, LANCE)
# Format: biochemical
# Settings: GST-FXR-LBD, biotinylated SRC-1 peptide 676-700
# Description: Determination of a ligand mediated cofactor peptide interaction to quantify ligand binding to the nuclear receptor FXR was performed as follows.
# Preparation of human FXR alpha ligand binding domain (LBD): The human FXRalpha LBD was expressed in E. coli strain BL21(DE3) as an N-terminally GST tagged fusion protein. The DNA encoding the FXR ligand binding domain was cloned into vector pDEST15 (Invitrogen). Expression was under control of an IPTG inducible T7 promoter. The amino acid boundaries of the ligand binding domain were amino acids 187-472 of Database entry NM 005123 (RefSeq). Expression and purification of the FXR-LBD: An overnight preculture of a transformed E. coli strain was diluted 1:20 in LB-Ampicillin medium and grown at 30° C. to an optical density of OD600=0.4−0.6. Gene expression was then induced by addition of 0.5 mM IPTG. Cells were incubated an additional 6 h at 30° C., 180 rpm. Cells were collected by centrifugation (7000×g, 7 minutes, room temperature). […] The protein was analysed by SDS-Page.
# The method measures the ability of putative ligands to modulate the interaction between the purified bacterially expressed FXR ligand binding domain (LBD) and a synthetic biotinylated peptide based on residues 676-700 of SRC-1 (LCD2, 676-700). […] The ligand binding domain (LBD) of FXR was expressed as fusion protein with GST in BL-21 cells using the vector pDEST15. […] For ease of handling and reduction of background from compound fluorescence LANCE technology makes use of generic fluorophore labels and time resolved detection Assays were done in a final volume of 25 μL in a 384 well plate, in a Tris-based buffer (20 mM Tris-HCl pH 7.5; 60 mM KCl, 5 mM MgCl2; 35 ng/μL BSA), containing 20-60 ng/well recombinantly expressed FXR-LBD fused to GST, 200-600 nM N-terminally biotinylated peptide, representing SRC1 aminoacids 676-700, 200 ng/well Streptavidin-xlAPC conjugate (Prozyme) and 6-10 ng/well Eu W1024-antiGST (Perkin Elmer). […] The LANCE signal was detected by a Perkin Elmer VICTOR2VTM Multilabel Counter. […]
row,EC50,Compound
1,14.2 nM,"O=C(O)c1ccc(N2CC(O)(c3ccc(OCc4c(-c5c(Cl)cc(F)cc5Cl)noc4C4CC4)cc3Cl)C2)nc1 [Example 1, 6-(3-(2-chloro-4-((5-cyclopropyl-3-(2,6-dichloro-4-fluorophenyl)isoxazol-4-yl)methoxy)phenyl)-3-hydroxyazetidin-1-yl)nicotinic acid]"
2,7.5 nM,"O=C(O)c1cnc(N2CC(O)(c3ccc(OCc4c(-c5c(Cl)cc(F)cc5Cl)noc4C4CC4)cc3Cl)C2)c(F)c1 [Comparative Example 1, 6-(3-(2-chloro-4-((5-cyclopropyl-3-(2,6-dichloro-4-fluorophenyl)isoxazol-4-yl)methoxy)phenyl)-3-hydroxyazetidin-1-yl)-5-fluoronicotinic acid]"
3,3.4 nM,O=C(O)c1ccc(N2CC(O)(c3ccc(OCc4c(-c5c(Cl)cccc5Cl)noc4C4CC4)cc3Cl)C2)nc1 [Comparative Example 2]
